Results: patent US8372967B2, “Compounds and methods for modulating expression of GCCR” (Isis Pharmaceuticals, Inc., priority 2006, dated 2013)
Strand notation (5' to 3'): a small letter for the sugar, then the base; units joined by * are phosphorothioate-linked, units joined directly phosphodiester-linked; [ ] holds rarer units or linkages, { } end groups; capitals alone tell only the bases. e = 2'-O-(2-methoxyethyl) (MOE); [5mC] = 5-methylcytosine; d = 2'-deoxy (DNA)

tested on: PTP1B mRNA; test: Dose response for human PTP1B in HuVEC cells, PPS 198 and PPS 3000 (Tables 86, 87); assay type: cell-based; conditions: PPS 198, 1.11 nM
Protocol: Human vascular endothelial (HuVEC) cells were plated at a density of 5000 cells per well and treated as described herein with nM concentrations of short antisense compound as indicated in Table 86. After the treatment period, RNA was isolated from the cells and PTP1B mRNA levels were measured by quantitative real-time PCR, as described herein. PTP1B mRNA levels were adjusted according to total RNA content as measured by RIBOGREEN®. Two different human PTP1B primer probe sets were used to measure mRNA levels. Results with Primer Probe Set (PPS) 198 are shown in Table 86, and results with Primer Probe Set (PPS) 3000 are shown in Table 87. Results are presented as percent inhibition of PTP1B mRNA expression relative to untreated control cells.

Substance	% Inhibition [%]
399096 (eT*eG*d[5mC]*dT*d[5mC]*dG*dA*dA*d[5mC]*dT*d[5mC]*d[5mC]*eT*eT; antisense) [compound 399096]	3
399102 (eG*eA*dA*dG*dT*d[5mC]*dA*d[5mC]*dT*dG*dG*d[5mC]*eT*eT; antisense) [compound 399102]	0
399113 (eG*eT*dT*dA*dG*dG*d[5mC]*dA*dA*dA*dG*dG*eG*e[5mC]; antisense) [compound 399113]	0
399132 (eG*eG*dG*d[5mC]*dT*dG*dA*dG*dT*dG*dA*d[5mC]*e[5mC]*e[5mC]; antisense) [compound 399132]	0

same assay, conditions: PPS 198, 3.33 nM

Substance	% Inhibition [%]
399096 (eT*eG*d[5mC]*dT*d[5mC]*dG*dA*dA*d[5mC]*dT*d[5mC]*d[5mC]*eT*eT; antisense) [compound 399096]	30
399102 (eG*eA*dA*dG*dT*d[5mC]*dA*d[5mC]*dT*dG*dG*d[5mC]*eT*eT; antisense) [compound 399102]	15
399113 (eG*eT*dT*dA*dG*dG*d[5mC]*dA*dA*dA*dG*dG*eG*e[5mC]; antisense) [compound 399113]	31
399132 (eG*eG*dG*d[5mC]*dT*dG*dA*dG*dT*dG*dA*d[5mC]*e[5mC]*e[5mC]; antisense) [compound 399132]	32

same assay, conditions: PPS 198, 10.0 nM

Substance	% Inhibition [%]
399096 (eT*eG*d[5mC]*dT*d[5mC]*dG*dA*dA*d[5mC]*dT*d[5mC]*d[5mC]*eT*eT; antisense) [compound 399096]	78
399102 (eG*eA*dA*dG*dT*d[5mC]*dA*d[5mC]*dT*dG*dG*d[5mC]*eT*eT; antisense) [compound 399102]	62
399113 (eG*eT*dT*dA*dG*dG*d[5mC]*dA*dA*dA*dG*dG*eG*e[5mC]; antisense) [compound 399113]	72
399132 (eG*eG*dG*d[5mC]*dT*dG*dA*dG*dT*dG*dA*d[5mC]*e[5mC]*e[5mC]; antisense) [compound 399132]	75

same assay, conditions: PPS 198, 30.0 nM

Substance	% Inhibition [%]
399096 (eT*eG*d[5mC]*dT*d[5mC]*dG*dA*dA*d[5mC]*dT*d[5mC]*d[5mC]*eT*eT; antisense) [compound 399096]	96
399102 (eG*eA*dA*dG*dT*d[5mC]*dA*d[5mC]*dT*dG*dG*d[5mC]*eT*eT; antisense) [compound 399102]	88
399113 (eG*eT*dT*dA*dG*dG*d[5mC]*dA*dA*dA*dG*dG*eG*e[5mC]; antisense) [compound 399113]	90
399132 (eG*eG*dG*d[5mC]*dT*dG*dA*dG*dT*dG*dA*d[5mC]*e[5mC]*e[5mC]; antisense) [compound 399132]	95

same assay, conditions: PPS 3000, 1.11 nM

Substance	% Inhibition [%]
399096 (eT*eG*d[5mC]*dT*d[5mC]*dG*dA*dA*d[5mC]*dT*d[5mC]*d[5mC]*eT*eT; antisense) [compound 399096]	0
399102 (eG*eA*dA*dG*dT*d[5mC]*dA*d[5mC]*dT*dG*dG*d[5mC]*eT*eT; antisense) [compound 399102]	0
399113 (eG*eT*dT*dA*dG*dG*d[5mC]*dA*dA*dA*dG*dG*eG*e[5mC]; antisense) [compound 399113]	0
399132 (eG*eG*dG*d[5mC]*dT*dG*dA*dG*dT*dG*dA*d[5mC]*e[5mC]*e[5mC]; antisense) [compound 399132]	0

same assay, conditions: PPS 3000, 3.33 nM

Substance	% Inhibition [%]
399096 (eT*eG*d[5mC]*dT*d[5mC]*dG*dA*dA*d[5mC]*dT*d[5mC]*d[5mC]*eT*eT; antisense) [compound 399096]	23
399102 (eG*eA*dA*dG*dT*d[5mC]*dA*d[5mC]*dT*dG*dG*d[5mC]*eT*eT; antisense) [compound 399102]	9
399113 (eG*eT*dT*dA*dG*dG*d[5mC]*dA*dA*dA*dG*dG*eG*e[5mC]; antisense) [compound 399113]	9
399132 (eG*eG*dG*d[5mC]*dT*dG*dA*dG*dT*dG*dA*d[5mC]*e[5mC]*e[5mC]; antisense) [compound 399132]	26

same assay, conditions: PPS 3000, 10.0 nM

Substance	% Inhibition [%]
399096 (eT*eG*d[5mC]*dT*d[5mC]*dG*dA*dA*d[5mC]*dT*d[5mC]*d[5mC]*eT*eT; antisense) [compound 399096]	75
399102 (eG*eA*dA*dG*dT*d[5mC]*dA*d[5mC]*dT*dG*dG*d[5mC]*eT*eT; antisense) [compound 399102]	60
399113 (eG*eT*dT*dA*dG*dG*d[5mC]*dA*dA*dA*dG*dG*eG*e[5mC]; antisense) [compound 399113]	65
399132 (eG*eG*dG*d[5mC]*dT*dG*dA*dG*dT*dG*dA*d[5mC]*e[5mC]*e[5mC]; antisense) [compound 399132]	76

same assay, conditions: PPS 3000, 30.0 nM

Substance	% Inhibition [%]
399096 (eT*eG*d[5mC]*dT*d[5mC]*dG*dA*dA*d[5mC]*dT*d[5mC]*d[5mC]*eT*eT; antisense) [compound 399096]	94
399102 (eG*eA*dA*dG*dT*d[5mC]*dA*d[5mC]*dT*dG*dG*d[5mC]*eT*eT; antisense) [compound 399102]	87
399113 (eG*eT*dT*dA*dG*dG*d[5mC]*dA*dA*dA*dG*dG*eG*e[5mC]; antisense) [compound 399113]	90
399132 (eG*eG*dG*d[5mC]*dT*dG*dA*dG*dT*dG*dA*d[5mC]*e[5mC]*e[5mC]; antisense) [compound 399132]	91
